From ChEMBL document CHEMBL1201862, “PubChem BioAssay data set” (2004)
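Grown in 96-well plates, cells were treated for 48 hours with each compound at five concentrations. Insufficient inhibition: endpoint recorded as highest concentration tested. GI50: concentration for 50% inhibition of growth.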 Active and inactive are the calls of the source. No stated cut-off is given here; in the data, active = GI50 up to about 1.1 µM and inactive = higher.

Assays:
Assay in all cases: NCI tumour cell line growth inhibition, 48 h
786-0 = test system: 786-0
A498 = test system: A498
A549 = test system: A549
ACHN = test system: ACHN
BT-549 = test system: BT-549
CAKI-1 = test system: CAKI-1
CCRF-CEM = test system: CCRF-CEM
COLO 205 = test system: COLO 205
DU-145 = test system: DU-145
EKVX = test system: EKVX
HCC 2998 = test system: HCC 2998
HCT-116 = test system: HCT-116
HCT-15 = test system: HCT-15
HL-60 = test system: HL-60
HT-29 = test system: HT-29
Hs-578T = test system: Hs-578T
IGROV-1 = test system: IGROV-1
K562 = test system: K562
KM12 = test system: KM12
LOX IMVI = test system: LOX IMVI
M14 = test system: M14
MCF7 = test system: MCF7
MDA-MB-231 = test system: MDA-MB-231
MDA-MB-435 = test system: MDA-MB-435
MDA-N = test system: MDA-N
MOLT-4 = test system: MOLT-4
Malme-3M = test system: Malme-3M
NCI-H226 = test system: NCI-H226
NCI-H23 = test system: NCI-H23
NCI-H460 = test system: NCI-H460
NCI-H522 = test system: NCI-H522
NCI/ADR-RES = test system: NCI/ADR-RES
OVCAR-3 = test system: OVCAR-3
OVCAR-5 = test system: OVCAR-5
OVCAR-8 = test system: OVCAR-8
PC-3 = test system: PC-3
RPMI-8226 = test system: RPMI-8226
RXF 393 = test system: RXF 393
SF-268 = test system: SF-268
SF-295 = test system: SF-295
SF-539 = test system: SF-539
SK-MEL-28 = test system: SK-MEL-28
SK-MEL-2 = test system: SK-MEL-2
SK-MEL-5 = test system: SK-MEL-5
SK-OV-3 = test system: SK-OV-3
SN12C = test system: SN12C
SNB-19 = test system: SNB-19
SNB-75 = test system: SNB-75
SR = test system: SR
SW-620 = test system: SW-620
TK-10 = test system: TK-10
U-251 = test system: U-251
UACC-257 = test system: UACC-257
UACC-62 = test system: UACC-62
UO-31 = test system: UO-31
HOP-62 = test system: HOP-62
OVCAR-4 = test system: OVCAR-4
HOP-92 = test system: HOP-92

Measured: GI50

CCN(CC)C(=S)Nc1ccc(-c2cc3ccc(O)cc3oc2=O)cc1
19.7 µM: HCT-15
inactive: 786-0 39.4 µM | A498 20.8 µM | A549 44.9 µM | ACHN 25.9 µM | BT-549 26.1 µM | CAKI-1 31.2 µM | CCRF-CEM 16.4 µM | COLO 205 29.4 µM | DU-145 29.8 µM | EKVX 32 µM | HCC 2998 20.2 µM | HCT-116 26.1 µM | HL-60 3.76 µM | HT-29 16.8 µM | Hs-578T 25.4 µM | IGROV-1 30.6 µM | K562 18.4 µM | KM12 28.8 µM | LOX IMVI 25.9 µM | M14 27.2 µM | MCF7 > 10 µM | MDA-MB-231 39.4 µM | MDA-MB-435 28.6 µM | MDA-N 24.8 µM | MOLT-4 13.4 µM | Malme-3M 17 µM | NCI-H226 25.6 µM | NCI-H23 29.7 µM | NCI-H460 31.4 µM | NCI-H522 17 µM | NCI/ADR-RES 20.6 µM | OVCAR-3 17.4 µM | OVCAR-5 26.2 µM | OVCAR-8 26.9 µM | PC-3 23.4 µM | RPMI-8226 21.6 µM | RXF 393 30.2 µM | SF-268 32.1 µM | SF-295 36.5 µM | SF-539 29.2 µM | SK-MEL-28 25.9 µM | SK-MEL-2 20.3 µM | SK-MEL-5 22.3 µM | SK-OV-3 44.1 µM | SN12C 27 µM | SNB-19 29.9 µM | SNB-75 16.4 µM | SR 14.5 µM | SW-620 34 µM | TK-10 39 µM | U-251 11.8 µM | UACC-257 22 µM | UACC-62 32.4 µM | UO-31 17.5 µM

COc1ccc(OC)c(CNc2ccc(O)c(C(=O)NCCc3ccc(F)cc3)c2)c1
12.6 µM: HCT-15
inactive: 786-0 23.8 µM | A498 16.4 µM | A549 20.7 µM | ACHN 24 µM | BT-549 17.1 µM | CAKI-1 21.5 µM | CCRF-CEM 7.23 µM | COLO 205 18.6 µM | DU-145 12.8 µM | EKVX 19.7 µM | HCC 2998 3.58 µM | HCT-116 12.1 µM | HOP-62 4.08 µM | HT-29 18 µM | Hs-578T 22.7 µM | IGROV-1 5.68 µM | K562 3.74 µM | KM12 9.71 µM | LOX IMVI 11.1 µM | M14 10.4 µM | MCF7 10.8 µM | MDA-MB-231 7 µM | MDA-MB-435 2.74 µM | MDA-N 4.06 µM | MOLT-4 4.05 µM | NCI-H23 17.1 µM | NCI-H460 13.2 µM | NCI-H522 2.83 µM | NCI/ADR-RES 10.1 µM | OVCAR-3 7.57 µM | OVCAR-4 9.95 µM | OVCAR-5 22.4 µM | OVCAR-8 16.2 µM | PC-3 10.1 µM | RPMI-8226 2.83 µM | SF-268 11.6 µM | SF-295 13.7 µM | SF-539 15.8 µM | SK-MEL-28 3.3 µM | SK-MEL-2 8.15 µM | SK-MEL-5 7.19 µM | SK-OV-3 17.3 µM | SN12C 19.5 µM | SNB-19 15.1 µM | SR 3.44 µM | SW-620 15.7 µM | TK-10 28.9 µM | U-251 11.9 µM | UACC-257 13.5 µM | UACC-62 8.89 µM | UO-31 7.18 µM

CC1=CC(=O)/C(=C/NC(=O)NN)C(=O)O1
> 100 µM: HCT-15
inactive: 786-0 > 100 µM | A549 > 100 µM | ACHN > 100 µM | BT-549 > 100 µM | CAKI-1 > 100 µM | CCRF-CEM > 100 µM | COLO 205 > 100 µM | DU-145 > 100 µM | EKVX 34.1 µM | HCC 2998 > 100 µM | HCT-116 > 100 µM | HOP-62 > 100 µM | HOP-92 > 100 µM | Hs-578T > 100 µM | IGROV-1 58.5 µM | KM12 > 100 µM | LOX IMVI > 100 µM | M14 > 100 µM | MCF7 > 100 µM | MDA-MB-231 > 100 µM | MDA-MB-435 > 100 µM | MDA-N > 100 µM | MOLT-4 > 100 µM | NCI-H23 > 100 µM | NCI-H460 > 100 µM | NCI-H522 > 100 µM | NCI/ADR-RES 94.2 µM | OVCAR-3 > 100 µM | OVCAR-4 > 100 µM | OVCAR-5 > 100 µM | OVCAR-8 > 100 µM | PC-3 > 100 µM | RXF 393 > 100 µM | SF-268 > 100 µM | SF-295 > 100 µM | SF-539 77.8 µM | SK-MEL-28 54.5 µM | SK-MEL-2 > 100 µM | SK-MEL-5 > 100 µM | SK-OV-3 > 100 µM | SN12C > 100 µM | SNB-19 > 100 µM | SNB-75 45.4 µM | SW-620 > 100 µM | TK-10 > 100 µM | U-251 > 100 µM | UACC-257 > 100 µM | UACC-62 > 100 µM | UO-31 > 100 µM
